Source: PubChem BioAssay AID1259407 (Chemical Carcinogenesis Research Information System (CCRIS), 2018)
The source made the active and inactive calls. How the calls were made is not given here.

Test system: CCRIS mutagenicity, Ames/micronucleus/aberration tests
Assay: CCRIS mutagenicity studies
[1] = Test System: AMES SALMONELLA TYPHIMURIUM, Strain/Indicator: TA98, Metabolic Activation: RAT, LIVER, S-9, AROCLOR 1254, Method: STANDARD PLATE
[2] = Test System: MOUSE LYMPHOMA, Strain/Indicator: L5178Y (TK+/TK-), Metabolic Activation: NONE, Method: SUSPENSION/PLATE
[3] = Test System: AMES SALMONELLA TYPHIMURIUM, Strain/Indicator: TA98, Metabolic Activation: NONE, Method: PREINCUBATION
[4] = Test System: AMES SALMONELLA TYPHIMURIUM, Strain/Indicator: TA100, Metabolic Activation: NONE, Method: PREINCUBATION

Q: `Nc1ncnc2c1ncn2[C@H]1CC[C@@H](CO)O1` was tested. Which mutagenic call (Test System: AMES SALMONELLA TYPHIMURIUM, Strain/Indicator: TA98, Metabolic Activation: HAMSTER, LIVER, S-9, AROCLOR 1254, Method: STANDARD PLATE) did it give?
A: inactive; negative

Q: And the mutagenic call (Test System: AMES SALMONELLA TYPHIMURIUM, Strain/Indicator: TA98, Metabolic Activation: NONE, Method: STANDARD PLATE)?
A: inactive; negative

Q: What about the mutagenic call [1] of the same compound?
A: inactive; negative

Q: What about the mutagenic call (Test System: AMES SALMONELLA TYPHIMURIUM, Strain/Indicator: TA100, Metabolic Activation: HAMSTER, LIVER, S-9, AROCLOR 1254, Method: STANDARD PLATE) of the same compound?
A: inactive; negative

Q: What about the mutagenic call (Test System: AMES SALMONELLA TYPHIMURIUM, Strain/Indicator: TA100, Metabolic Activation: NONE, Method: STANDARD PLATE) of the same compound?
A: inactive; negative

Q: And the mutagenic call (Test System: AMES SALMONELLA TYPHIMURIUM, Strain/Indicator: TA100, Metabolic Activation: RAT, LIVER, S-9, AROCLOR 1254, Method: STANDARD PLATE)?
A: inactive; negative

Q: What about the mutagenic call (Test System: AMES SALMONELLA TYPHIMURIUM, Strain/Indicator: TA1535, Metabolic Activation: HAMSTER, LIVER, S-9, AROCLOR 1254, Method: STANDARD PLATE) of the same compound?
A: inactive; negative

Q: And the mutagenic call (Test System: AMES SALMONELLA TYPHIMURIUM, Strain/Indicator: TA1535, Metabolic Activation: NONE, Method: STANDARD PLATE)?
A: inactive; negative

Q: What about the mutagenic call (Test System: AMES SALMONELLA TYPHIMURIUM, Strain/Indicator: TA1535, Metabolic Activation: RAT, LIVER, S-9, AROCLOR 1254, Method: STANDARD PLATE) of the same compound?
A: inactive; negative

Q: What about the mutagenic call (Test System: AMES SALMONELLA TYPHIMURIUM, Strain/Indicator: TA1537, Metabolic Activation: HAMSTER, LIVER, S-9, AROCLOR 1254, Method: STANDARD PLATE) of the same compound?
A: inactive; negative

Q: What about the mutagenic call (Test System: AMES SALMONELLA TYPHIMURIUM, Strain/Indicator: TA1537, Metabolic Activation: NONE, Method: STANDARD PLATE) of the same compound?
A: inactive; negative

Q: What about the mutagenic call (Test System: AMES SALMONELLA TYPHIMURIUM, Strain/Indicator: TA1537, Metabolic Activation: RAT, LIVER, S-9, AROCLOR 1254, Method: STANDARD PLATE) of the same compound?
A: inactive; negative

Q: What about the mutagenic call (Test System: AMES SALMONELLA TYPHIMURIUM, Strain/Indicator: TA1538, Metabolic Activation: HAMSTER, LIVER, S-9, AROCLOR 1254, Method: STANDARD PLATE) of the same compound?
A: inactive; negative

Q: What about the mutagenic call (Test System: AMES SALMONELLA TYPHIMURIUM, Strain/Indicator: TA1538, Metabolic Activation: NONE, Method: STANDARD PLATE) of the same compound?
A: inactive; negative

Q: And the mutagenic call (Test System: AMES SALMONELLA TYPHIMURIUM, Strain/Indicator: TA1538, Metabolic Activation: RAT, LIVER, S-9, AROCLOR 1254, Method: STANDARD PLATE)?
A: inactive; negative

Q: What about the mutagenic call [2] of the same compound?
A: active; positive. reevaluation of results: positive

Q: And the mutagenic call (Test System: MOUSE LYMPHOMA, Strain/Indicator: L5178Y (TK+/TK-), Metabolic Activation: RAT, LIVER, S-9, AROCLOR 1254, Method: SUSPENSION/PLATE)?
A: active; positive. reevaluation of results: equivocal

Q: Which mutagenic call [2] does the source give for `C=CC(=O)OCCOC1CC2CC1C1CC=CC21` (configuration not stated) here?
A: active; positive

Q: How did the mutagenic call (Test System: AMES SALMONELLA TYPHIMURIUM, Strain/Indicator: TA98, Metabolic Activation: HAMSTER, LIVER, S-9, AROCLOR 1254 (10%), Method: PREINCUBATION) turn out when `C1=CC2C3C=CC(C3)C2C1` (configuration not stated) was run?
A: inactive; negative

Q: What about the mutagenic call [3] of the same compound?
A: inactive; negative

Q: And the mutagenic call (Test System: AMES SALMONELLA TYPHIMURIUM, Strain/Indicator: TA98, Metabolic Activation: RAT LIVER S-9, PHENOBARBITAL AND BETA-NAPHTHOFLAVONE, Method: PREINCUBATION)?
A: inactive; negative

Q: And the mutagenic call (Test System: AMES SALMONELLA TYPHIMURIUM, Strain/Indicator: TA98, Metabolic Activation: RAT, LIVER, S-9, AROCLOR 1254 (10%), Method: PREINCUBATION)?
A: inactive; negative

Q: What about the mutagenic call (Test System: AMES SALMONELLA TYPHIMURIUM, Strain/Indicator: TA100, Metabolic Activation: HAMSTER, LIVER, S-9, AROCLOR 1254 (10%), Method: PREINCUBATION) of the same compound?
A: inactive; negative

Q: And the mutagenic call [4]?
A: inactive; negative

Q: What about the mutagenic call (Test System: AMES SALMONELLA TYPHIMURIUM, Strain/Indicator: TA100, Metabolic Activation: RAT LIVER S-9, PHENOBARBITAL AND BETA-NAPHTHOFLAVONE, Method: PREINCUBATION) of the same compound?
A: inactive; negative

Q: What about the mutagenic call (Test System: AMES SALMONELLA TYPHIMURIUM, Strain/Indicator: TA100, Metabolic Activation: RAT, LIVER, S-9, AROCLOR 1254 (10%), Method: PREINCUBATION) of the same compound?
A: inactive; negative

Q: And the mutagenic call (Test System: AMES SALMONELLA TYPHIMURIUM, Strain/Indicator: TA1535, Metabolic Activation: HAMSTER, LIVER, S-9, AROCLOR 1254 (10%), Method: PREINCUBATION)?
A: inactive; negative

Q: And the mutagenic call (Test System: AMES SALMONELLA TYPHIMURIUM, Strain/Indicator: TA1535, Metabolic Activation: NONE, Method: PREINCUBATION)?
A: inactive; negative

Q: What about the mutagenic call (Test System: AMES SALMONELLA TYPHIMURIUM, Strain/Indicator: TA1535, Metabolic Activation: RAT LIVER S-9, PHENOBARBITAL AND BETA-NAPHTHOFLAVONE, Method: PREINCUBATION) of the same compound?
A: inactive; negative

Q: What about the mutagenic call (Test System: AMES SALMONELLA TYPHIMURIUM, Strain/Indicator: TA1535, Metabolic Activation: RAT, LIVER, S-9, AROCLOR 1254 (10%), Method: PREINCUBATION) of the same compound?
A: inactive; negative

Q: What about the mutagenic call (Test System: AMES SALMONELLA TYPHIMURIUM, Strain/Indicator: TA1537, Metabolic Activation: HAMSTER, LIVER, S-9, AROCLOR 1254 (10%), Method: PREINCUBATION) of the same compound?
A: inactive; negative

Q: And the mutagenic call (Test System: AMES SALMONELLA TYPHIMURIUM, Strain/Indicator: TA1537, Metabolic Activation: NONE, Method: PREINCUBATION)?
A: inactive; negative

Q: What about the mutagenic call (Test System: AMES SALMONELLA TYPHIMURIUM, Strain/Indicator: TA1537, Metabolic Activation: RAT LIVER S-9, PHENOBARBITAL AND BETA-NAPHTHOFLAVONE, Method: PREINCUBATION) of the same compound?
A: inactive; negative

Q: And the mutagenic call (Test System: AMES SALMONELLA TYPHIMURIUM, Strain/Indicator: TA1537, Metabolic Activation: RAT, LIVER, S-9, AROCLOR 1254 (10%), Method: PREINCUBATION)?
A: inactive; negative

Q: What about the mutagenic call (Test System: E.COLI, Strain/Indicator: WP2UVRA, Metabolic Activation: NONE, Method: PREINCUBATION) of the same compound?
A: inactive; negative

Q: What about the mutagenic call (Test System: E.COLI, Strain/Indicator: WP2UVRA, Metabolic Activation: RAT LIVER S-9, PHENOBARBITAL AND BETA-NAPHTHOFLAVONE, Method: PREINCUBATION) of the same compound?
A: inactive; negative

Q: With `CC(=O)Nc1cc2c(cc1O)-c1ccccc1C2` as the compound, how does the mutagenic call [1] read?
A: inactive; negative

Q: With `COc1cc(/C=C/c2ccccc2)oc(=O)c1` as the compound, how does the mutagenic call (Test System: Mouse lymphoma cells, Strain/Indicator: L5178Y ( tk+/tk-), Metabolic Activation: Human, Liver, S-9, Method: Suspension/plate) read?
A: inactive; negative

Q: For `Fc1cccc2c1ccc1cccnc12`, which mutagenic call (Test System: AMES SALMONELLA TYPHIMURIUM, Strain/Indicator: TA100, Metabolic Activation: RAT, LIVER, S-9, PHENOBARBITAL AND 5,6-BENZOFLAVONE, Method: PREINCUBATION) is on record?
A: active; positive

Q: For `O=C(Cl)c1ccc(Cl)cc1Cl`, which mutagenic call [3] is on record?
A: inactive; negative

Q: What about the mutagenic call (Test System: AMES SALMONELLA TYPHIMURIUM, Strain/Indicator: TA98, Metabolic Activation: RAT LIVER S-9, PCB, Method: PREINCUBATION) of the same compound?
A: active; positive

Q: And the mutagenic call [4]?
A: inactive; negative

Q: What about the mutagenic call (Test System: AMES SALMONELLA TYPHIMURIUM, Strain/Indicator: TA100, Metabolic Activation: RAT LIVER S-9, PCB, Method: PREINCUBATION) of the same compound?
A: active; positive

Q: What about the mutagenic call (Test System: AMES SALMONELLA TYPHIMURIUM, Strain/Indicator: TA104, Metabolic Activation: NONE, Method: PREINCUBATION) of the same compound?
A: inactive; negative

Q: And the mutagenic call (Test System: AMES SALMONELLA TYPHIMURIUM, Strain/Indicator: TA104, Metabolic Activation: RAT LIVER S-9, PCB, Method: PREINCUBATION)?
A: active; positive

Q: And the mutagenic call (Test System: Ames Salmonella typhimurium, Strain/Indicator: TA98, Metabolic Activation: None, Method: Preincubation)?
A: inactive; negative

Q: What about the mutagenic call (Test System: Ames Salmonella typhimurium, Strain/Indicator: TA98, Metabolic Activation: Rat, Liver, S9, Sodium phenobarbital and 5,6-benzoflavone, Method: Preincubation) of the same compound?
A: inactive; negative

Q: What about the mutagenic call (Test System: Ames Salmonella typhimurium, Strain/Indicator: TA100, Metabolic Activation: None, Method: Preincubation) of the same compound?
A: inactive; negative

Q: And the mutagenic call (Test System: Ames Salmonella typhimurium, Strain/Indicator: TA100, Metabolic Activation: Rat, Liver, S9, Sodium phenobarbital and 5,6-benzoflavone, Method: Preincubation)?
A: inactive; negative

Q: What about the mutagenic call (Test System: Ames Salmonella typhimurium, Strain/Indicator: TA1535, Metabolic Activation: None, Method: Preincubation) of the same compound?
A: inactive; negative

Q: What about the mutagenic call (Test System: Ames Salmonella typhimurium, Strain/Indicator: TA1535, Metabolic Activation: Rat, Liver, S9, Sodium phenobarbital and 5,6-benzoflavone, Method: Preincubation) of the same compound?
A: inactive; negative

Q: And the mutagenic call (Test System: Ames Salmonella typhimurium, Strain/Indicator: TA1537, Metabolic Activation: None, Method: Preincubation)?
A: inactive; negative

Q: And the mutagenic call (Test System: Ames Salmonella typhimurium, Strain/Indicator: TA1537, Metabolic Activation: Rat, Liver, S9, Sodium phenobarbital and 5,6-benzoflavone, Method: Preincubation)?
A: inactive; negative

Q: And the mutagenic call (Test System: E. coli, Strain/Indicator: WP2uvrA/pKM101, Metabolic Activation: None, Method: Preincubation)?
A: inactive; negative

Q: And the mutagenic call (Test System: E. coli, Strain/Indicator: WP2uvrA/pKM101, Metabolic Activation: Rat, Liver, S9, Sodium phenobarbital and 5,6-benzoflavone, Method: Preincubation)?
A: inactive; negative

Q: What about the mutagenic call (Test System: E.COLI, Strain/Indicator: WP2 UVRA, Metabolic Activation: NONE, Method: PREINCUBATION) of the same compound?
A: inactive; negative

Q: And the mutagenic call (Test System: E.COLI, Strain/Indicator: WP2 UVRA, Metabolic Activation: RAT LIVER S-9, PCB, Method: PREINCUBATION)?
A: inactive; negative
